Source: BindingDB's records for doi:10.1021/jm900472s (Burnham Institute For Medical Research, 2009)

Molecular target: Apoptosis regulator Bcl-2 (Homo sapiens, UniProt P10415)
Test: Fluorescence Polarization Assay
Settings: pH 7.4; 23 °C
Method: FPAs were performed using various concentrations of GST-Bcl-2 family proteins, incubated with FITC-conjugated peptide substrates in the presence of inhibitor compound. […] IC50 was determined by fitting the experimental data to a sigmoidal dose-response nonlinear regression model (SigmaPlot 10.0.1, Systat Software, Inc., San Jose, CA). Data reported are the mean of three independent experiments.

Sequence of Apoptosis regulator Bcl-2 (P10415 whole entry): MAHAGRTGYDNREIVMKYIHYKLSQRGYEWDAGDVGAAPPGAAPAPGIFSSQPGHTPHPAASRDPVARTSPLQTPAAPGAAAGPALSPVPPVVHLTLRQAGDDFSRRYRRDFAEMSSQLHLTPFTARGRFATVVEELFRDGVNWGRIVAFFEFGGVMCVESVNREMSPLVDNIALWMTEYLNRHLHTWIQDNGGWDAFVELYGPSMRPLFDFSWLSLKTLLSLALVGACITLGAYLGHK

Cc1cc2c(C(C)C)c(O)c(O)cc2c(O)c1-c1c(C)cc2c(C(C)C)c(O)c(O)cc2c1O [Apogossypol]
IC50: 4.3 µM
